Measured values as given in paper PMC7311426, “An amphipathic peptide with antibiotic activity against multidrug-resistant Gram-negative bacteria” (Nature Communications, 2020).
Converted amounts (≈) assume the structure as drawn. Residues, ends and D or L forms follow the SMILES beside them.

Legend:
in vitro = details: human
[1] = system: HEK-293 human embryonic kidney cells; assay: in vitro
[2] = system: HK-2 human kidney proximal tubule cells; assay: in vitro
[3] = system: human primary hepatocytes; assay: Cell viability, human primary hepatocytes (Eurofins Panlabs); assay type: cell-based
Description: Cell viability of human primary hepatocytes against AA139 was assessed by fluorometric readout of Alamar Blue following 24 h incubation at 37 °C of human plateable cryopreserved hepatocytes and AA139 as an 8-point dose response, 0.1–300 μM, as described by Nociari et al.[41]. Cell viability was calculated as a percentage of the control cells and plotted versus concentration using Prism 8 Software. The IC50 value was determined by non-linear regression analysis of the concentration–response curve using the Hill equation. Assay was performed by Eurofins Pharma Discovery Services (Panlabs), St Charles, MO, USA, study number 100049990. Source data are provided as a source data file.

## CC(C)[C@@H]1NC(=O)[C@H](Cc2ccc(O)cc2)NC(=O)[C@H](Cc2c[nH]c3ccccc23)NC(=O)[C@@H](NC(=O)[C@H](Cc2ccccc2)NC(=O)CN)CSSC[C@@H](C(=O)N[C@@H](CC(N)=O)C(=O)O)NC(=O)[C@H](CCCNC(=N)N)NC(=O)[C@H](CCCNC(=N)N)NC(=O)[C@H](Cc2ccc(O)cc2)NC(=O)[C@@H]2CSSC[C@H](NC1=O)C(=O)N[C@@H](C)C(=O)N[C@@H](CCCNC(=N)N)C(=O)N[C@@H](CCCNC(=N)N)C(=O)N[C@@H](CC(N)=O)C(=O)NCC(=O)N[C@@H](C)C(=O)N[C@@H](CCCNC(=N)N)C(=O)N[C@@H](C(C)C)C(=O)N2 [AA139] (HELM PEPTIDE1{G.F.C.W.Y.V.C.A.R.R.N.G.A.R.V.C.Y.R.R.C.N}$PEPTIDE1,PEPTIDE1,3:R3-20:R3|PEPTIDE1,PEPTIDE1,7:R3-16:R3$$$V2.0)
In vitro; HEK-293 cells
  CC50 at 24 h: > 300 µg/mL
In vitro; HK-2 cells
  CC50 at 24 h: > 250 µg/mL
In vitro; HepG2 cells
  CC50 at 24 h: > 300 µg/mL
[1]
  CC50 HEK293, Mean: >300 µg/mL
[2]
  CC50 HK2: >255 µg/mL
  CC50 HK2, Mean: >250 µg/mL
[3]; 24 h
  IC50, human primary hepatocytes: 330 µg/mL (≈ 129 µM)
[3]; IC50 / MIC
  Fold higher hepatocyte IC50 over antibacterial activity against E. coli: 2400 fold
  Fold higher hepatocyte IC50 over antibacterial activity against K. pneumoniae: 300 fold
